Experimental data as given in patent publication US8299023B2, “Neuropeptide-2 receptor (Y-2R) agonists” (Hoffmann-La Roche Inc., priority 2008, dated 2012).

Columns and labels:
Y5R = target: T1, Y5R (Homo sapiens, UniProt Q15761); assay: Ca flux assay (FLIPR), Y5R; type: cell-based; settings: for Emax: read-out: Y5R FLIPR, percentage in brackets beside the EC50
T1 sequence (Q15761 1-445): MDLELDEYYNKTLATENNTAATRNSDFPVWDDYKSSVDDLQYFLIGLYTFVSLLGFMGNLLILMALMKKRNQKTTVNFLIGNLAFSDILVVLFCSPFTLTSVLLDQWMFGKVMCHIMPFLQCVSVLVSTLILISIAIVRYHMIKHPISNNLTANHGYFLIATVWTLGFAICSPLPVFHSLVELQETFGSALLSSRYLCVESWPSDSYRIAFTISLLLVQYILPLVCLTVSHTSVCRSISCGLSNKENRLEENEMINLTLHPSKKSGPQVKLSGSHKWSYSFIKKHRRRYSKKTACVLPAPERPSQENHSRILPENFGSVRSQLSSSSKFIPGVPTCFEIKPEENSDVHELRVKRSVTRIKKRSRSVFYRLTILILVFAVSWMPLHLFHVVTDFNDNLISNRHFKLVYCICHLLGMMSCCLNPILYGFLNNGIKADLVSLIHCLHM

Y4R = Y4R (Homo sapiens, UniProt P50391); assay: Ca flux assay (FLIPR), Y4R; type: cell-based
Y1R = target: T2, Y1R (Homo sapiens, UniProt P25929); assay: Ca flux assay (FLIPR), Y1R; type: cell-based
T2 sequence (P25929 1-384): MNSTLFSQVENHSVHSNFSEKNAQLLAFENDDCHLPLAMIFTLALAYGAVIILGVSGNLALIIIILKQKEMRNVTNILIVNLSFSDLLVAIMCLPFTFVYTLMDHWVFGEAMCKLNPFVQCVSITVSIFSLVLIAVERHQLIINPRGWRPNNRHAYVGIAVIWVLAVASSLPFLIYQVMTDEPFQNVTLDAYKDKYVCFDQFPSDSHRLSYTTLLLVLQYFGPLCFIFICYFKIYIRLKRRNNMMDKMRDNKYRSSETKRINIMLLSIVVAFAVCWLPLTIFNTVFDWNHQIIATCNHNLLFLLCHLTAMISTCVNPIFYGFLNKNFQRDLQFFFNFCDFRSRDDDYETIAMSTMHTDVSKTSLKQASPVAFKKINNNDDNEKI

hypothalamic slices = hypothalamic slices in vitro; cited from earlier work
human NPY2-receptors = target: T3, human NPY2-receptors (Homo sapiens, UniProt P49146); assay: cAMP agonist assay, Y2R; type: cell-based
T3 construct: expressed in transfected cells; host or cells: HEK293 (G418 selection in the medium)
T3 sequence (P49146 1-381): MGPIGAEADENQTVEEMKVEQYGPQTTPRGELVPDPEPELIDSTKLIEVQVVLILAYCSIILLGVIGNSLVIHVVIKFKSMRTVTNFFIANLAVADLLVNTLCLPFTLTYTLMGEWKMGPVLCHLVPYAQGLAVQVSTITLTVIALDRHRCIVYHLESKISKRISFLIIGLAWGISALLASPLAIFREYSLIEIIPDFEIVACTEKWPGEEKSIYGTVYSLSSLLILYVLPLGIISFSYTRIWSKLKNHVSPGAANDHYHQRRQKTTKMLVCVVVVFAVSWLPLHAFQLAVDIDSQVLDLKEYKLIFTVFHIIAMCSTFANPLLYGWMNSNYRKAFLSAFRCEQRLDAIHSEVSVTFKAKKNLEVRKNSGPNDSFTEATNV
Method: HEK293 cells expressing human NPY2-receptors were plated in a 384-well plate at a density of 9000 cells/well using a Multi-drop dispenser and the plates were grown overnight at 37° C.
The media and reagents were warmed to room temperature. Before the dilutions were prepared, the stock solution of NPY2-receptor ligands and controls in dimethyl sulphoxide (DMSO, Sigma Cat. #D2650) was allowed to warm up to 32° C. for 5-10 min.
The plating media was removed by gentle inversion of the 384-well plate on a paper towel and was replaced with incubation medium (50 μ/L well) containing various concentrations of NPY2-receptor ligands (four replicates/concentration). The plates were incubated at room temperature for 30 min. Following the 30 min treatment period, the incubation media was discarded and replaced with 50 μL/well of Assay Lysis Buffer (provided in the Tropix kit). The cells were lysed by incubating plates for 45 min @ 37° C. The lysate (20 μl) was transferred into the pre-coated antibody plates (384-well) supplied in the Tropix kit. AP conjugate (10 μL) and of anti-cAMP antibody (20 μL) was added to each well and the plates incubated on a shaker at room temperature for 1 h. The plates were washed 5 times with Wash Buffer (70 μL/well/wash) and the plates tapped dry. […] The signal in each well was measured (1 sec/well) using a Luminometer (VICTOR-V).

Sequence of Y4R (P50391 whole entry): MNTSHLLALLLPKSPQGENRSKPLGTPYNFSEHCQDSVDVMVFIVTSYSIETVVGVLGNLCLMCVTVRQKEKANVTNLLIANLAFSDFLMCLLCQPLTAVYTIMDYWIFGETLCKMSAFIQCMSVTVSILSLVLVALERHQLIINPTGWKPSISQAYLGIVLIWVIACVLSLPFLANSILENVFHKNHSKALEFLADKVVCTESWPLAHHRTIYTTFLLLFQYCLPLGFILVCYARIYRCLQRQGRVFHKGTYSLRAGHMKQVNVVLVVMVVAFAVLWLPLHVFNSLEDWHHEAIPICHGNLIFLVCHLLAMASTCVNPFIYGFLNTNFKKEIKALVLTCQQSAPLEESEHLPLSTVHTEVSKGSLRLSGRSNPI

For `CC[C@H](C)[C@H](NC(C)=O)C(=O)N[C@@H](CCCCN)C(=O)N1CCN(c2ccc3c(ccn3CC(=O)N[C@@H](CCCNC(=N)N)C(=O)N[C@@H](Cc3c[nH]cn3)C(=O)N[C@@H](Cc3ccc(O)cc3)C(=O)N[C@@H](CC(C)C)C(=O)N[C@@H](CC(N)=O)C(=O)N[C@@H](Cc3c[nH]c4ccccc34)C(=O)N[C@H](C(=O)N[C@H](C(=O)N[C@@H](CCCNC(=N)N)C(=O)N[C@@H](CCC(N)=O)C(=O)N(C)[C@@H](CCCNC(=N)N)C(=O)N[C@@H](Cc3ccc(O)cc3)C(N)=O)[C@@H](C)O)C(C)C)c2)CC1` [Example 6], the EC50 (Y5R) was 10.7 µM, the EC50 (Y4R) was > 30 µM and the EC50 (Y1R) was > 30 µM.
For `CC[C@H](C)[C@H](NC(C)=O)C(=O)N[C@@H](CCCCN)C(=O)N1CC2CC1CC2c1ccc2ncn(CC(=O)N[C@@H](CCCNC(=N)N)C(=O)N[C@@H](Cc3c[nH]cn3)C(=O)N[C@@H](Cc3ccc(O)cc3)C(=O)N[C@@H](CC(C)C)C(=O)N[C@@H](CC(N)=O)C(=O)N[C@@H](Cc3c[nH]c4ccccc34)C(=O)N[C@H](C(=O)N[C@H](C(=O)N[C@@H](CCCNC(=N)N)C(=O)N[C@@H](CCC(N)=O)C(=O)N(C)[C@@H](CCCNC(=N)N)C(=O)N[C@@H](Cc3ccc(O)cc3)C(N)=O)[C@@H](C)O)C(C)C)c(=O)c2c1` (stereo partly shown) [Example 12], the EC50 (Y5R) was 2.87 µM, the Emax (Y5R) was 43% and the EC50 (Y4R) was > 5 µM. The EC50 (Y1R) was > 5 µM.
For `CC[C@H](C)[C@H](NC(C)=O)C(=O)N[C@@H](CCCCN)C(=O)N1CCCN(c2ccc3ncn(CC(=O)N[C@@H](CCCNC(=N)N)C(=O)N[C@@H](Cc4c[nH]cn4)C(=O)N[C@@H](Cc4ccc(O)cc4)C(=O)N[C@@H](CC(C)C)C(=O)N[C@@H](CC(N)=O)C(=O)N[C@@H](Cc4c[nH]c5ccccc45)C(=O)N[C@H](C(=O)N[C@H](C(=O)N[C@@H](CCCNC(=N)N)C(=O)N[C@@H](CCC(N)=O)C(=O)N(C)[C@@H](CCCNC(=N)N)C(=O)N[C@@H](Cc4ccc(O)cc4)C(N)=O)[C@@H](C)O)C(C)C)c(=O)c3c2)CC1` [Example 8], the EC50 (Y5R) was 6.03 µM, the EC50 (Y4R) was > 9 µM and the EC50 (Y1R) was > 9 µM.
In the case of `N=C(N)NCCC[C@H](NC(=O)CC1(CC(=O)N2CCN(C3c4ccccc4NC(=O)c4ccccc43)CC2)CCCC1)C(=O)NCCn1c(=O)n(-c2ccccc2)n(-c2ccccc2)c1=O` (stereo partly shown) [BIIE0246], the NPY release (hypothalamic slices) is listed as “increases NPY release”.
With `CC[C@H](C)[C@H](NC(C)=O)C(=O)N[C@@H](CCCCN)C(=O)N1CCN(c2nc3ncn(CC(=O)N[C@@H](CCCNC(=N)N)C(=O)N[C@@H](Cc4c[nH]cn4)C(=O)N[C@@H](Cc4ccc(O)cc4)C(=O)N[C@@H](CC(C)C)C(=O)N[C@@H](CC(N)=O)C(=O)N[C@@H](Cc4c[nH]c5ccccc45)C(=O)N[C@H](C(=O)N[C@H](C(=O)N[C@@H](CCCNC(=N)N)C(=O)N[C@@H](CCC(N)=O)C(=O)N(C)[C@@H](CCCNC(=N)N)C(=O)N[C@@H](Cc4ccc(O)cc4)C(N)=O)[C@@H](C)O)C(C)C)c3c(=O)[nH]2)CC1` [Example 9] the EC50 (Y5R) was > 9 µM, the EC50 (Y4R) was > 9 µM and the EC50 (Y1R) was > 9 µM.
In the case of `CC[C@H](C)[C@H](NC(C)=O)C(=O)N[C@@H](CCCCN)C(=O)N1CCN(c2ccc3ccn(CC(=O)N[C@@H](CCCNC(=N)N)C(=O)N[C@@H](Cc4c[nH]cn4)C(=O)N[C@@H](Cc4ccc(O)cc4)C(=O)N[C@@H](CC(C)C)C(=O)N[C@@H](CC(N)=O)C(=O)N[C@@H](Cc4c[nH]c5ccccc45)C(=O)N[C@H](C(=O)N[C@H](C(=O)N[C@@H](CCCNC(=N)N)C(=O)N[C@@H](CCC(N)=O)C(=O)N(C)[C@@H](CCCNC(=N)N)C(=O)N[C@@H](Cc4ccc(O)cc4)C(N)=O)[C@@H](C)O)C(C)C)c(=O)c3c2)CC1` [Example 13], the EC50 (human NPY2-receptors) is reported as 0.00018 µM, the EC50 (Y5R) is reported as 2.34 µM and the Emax (Y5R) is reported as 49%. The EC50 (Y4R) was > 5 µM and the EC50 (Y1R) was > 5 µM.
With `CC[C@H](C)[C@H](NC(C)=O)C(=O)N[C@@H](CCCCN)C(=O)NCc1ccc(-c2cccc(CC(=O)N[C@@H](CCCNC(=N)N)C(=O)N[C@@H](Cc3c[nH]cn3)C(=O)N[C@@H](Cc3ccc(O)cc3)C(=O)N[C@@H](CC(C)C)C(=O)N[C@@H](CC(N)=O)C(=O)N[C@@H](Cc3c[nH]c4ccccc34)C(=O)N[C@H](C(=O)N[C@H](C(=O)N[C@@H](CCCNC(=N)N)C(=O)N[C@@H](CCC(N)=O)C(=O)N(C)[C@@H](CCCNC(=N)N)C(=O)N[C@@H](Cc3ccc(O)cc3)C(N)=O)[C@@H](C)O)C(C)C)c2)cc1` [Example 5] the EC50 (Y5R) was > 30 µM, the EC50 (Y4R) was > 30 µM and the EC50 (Y1R) was > 30 µM.
For `CC[C@H](C)[C@H](NC(C)=O)C(=O)N[C@@H](CCCCN)C(=O)N1CCN(c2ncc3c(ncn3CC(=O)N[C@@H](CCCNC(=N)N)C(=O)N[C@@H](Cc3c[nH]cn3)C(=O)N[C@@H](Cc3ccc(O)cc3)C(=O)N[C@@H](CC(C)C)C(=O)N[C@@H](CC(N)=O)C(=O)N[C@@H](Cc3c[nH]c4ccccc34)C(=O)N[C@H](C(=O)N[C@H](C(=O)N[C@@H](CCCNC(=N)N)C(=O)N[C@@H](CCC(N)=O)C(=O)N(C)[C@@H](CCCNC(=N)N)C(=O)N[C@@H](Cc3ccc(O)cc3)C(N)=O)[C@@H](C)O)C(C)C)n2)CC1` [Example 10], the EC50 (Y5R) was 1.1 µM, the Emax (Y5R) was 48% and the EC50 (Y4R) was > 5 µM. For the same compound, the EC50 (Y1R) was > 5 µM.
For `CC[C@H](C)[C@H](NC(C)=O)C(=O)N[C@@H](CCCCN)C(=O)N1CCN(c2nc(N)c3c(ncn3CC(=O)N[C@@H](CCCNC(=N)N)C(=O)N[C@@H](Cc3c[nH]cn3)C(=O)N[C@@H](Cc3ccc(O)cc3)C(=O)N[C@@H](CC(C)C)C(=O)N[C@@H](CC(N)=O)C(=O)N[C@@H](Cc3c[nH]c4ccccc34)C(=O)N[C@H](C(=O)N[C@H](C(=O)N[C@@H](CCCNC(=N)N)C(=O)N[C@@H](CCC(N)=O)C(=O)N(C)[C@@H](CCCNC(=N)N)C(=O)N[C@@H](Cc3ccc(O)cc3)C(N)=O)[C@@H](C)O)C(C)C)n2)CC1` [Example 11], the EC50 (human NPY2-receptors) was 0.00018 µM, the EC50 (Y5R) was 3.3 µM and the Emax (Y5R) was 39%. For the same compound, the EC50 (Y4R) was > 5 µM and the EC50 (Y1R) was > 5 µM.
